Results taken from patent US8557812B2, “Small molecule inhibitors of anti-apoptotic BCL-2 family members and the uses thereof” (The Regents of the University of Michigan, priority 2004, dated 2013).

Target: Bcl-2 (Homo sapiens, UniProt P10415)
Assay: Fluorescence polarization in vitro Bcl-2 binding assay
Procedure: Bcl-2 used in this assay is a recombinant His-fused soluble protein. […] Inc., Research Triangle Park, N.C.). […] The unlabeled Bid peptide is used as the positive control. The Ki values were calculated using our developed equation for FP assay (Nikolovska-Coleska et al., Anal. Biochem., 2004, in press). The program for calculating a Ki value is available free of charge via the Internet at http://sw16.im.med.umich.edu/software/calc_ki/.

Chain of Bcl-2 (P10415 92-205 limits assumed): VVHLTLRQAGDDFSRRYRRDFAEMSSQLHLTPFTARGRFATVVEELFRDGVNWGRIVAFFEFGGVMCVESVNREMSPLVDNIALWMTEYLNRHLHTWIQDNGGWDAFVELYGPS

SMILES | IC50
Oc1c(Cc2ccccc2)cc(-c2ccc(CCCCCc3ccccc3)cc2)c(O)c1O [TW-1, 5-Benzyl-4′-(5-phenyl-pentyl)-biphenyl-2,3,4-triol] | > 1000 nM
O=C(Nc1cc(S(=O)(=O)c2ccc(Cl)cc2)ccc1Cl)c1cc(CCc2ccccc2)cc(O)c1O [TW-34, N-[2-Chloro-5-(4-chloro-benzenesulfonyl)-phenyl]-2,3-dihydroxyl-phenethyl-benzamide] | > 1000 nM
CCCCCCCCCCCc1ccc(-c2cc(Cc3ccc(C(C)C)cc3)c(O)c(O)c2O)cc1 [TW-9, 5-(4-Isopropyl-benzyl)-4′-undecyl-biphenyl-2,3,4-triol] | > 1000 nM
CCCCCCCCCCc1ccc(-c2cc(Cc3ccccc3)c(O)c(O)c2O)cc1 [TW-2, 5-Benzyl-4′-decyl-biphenyl-2,3,4-triol] | > 1000 nM
CC(C)c1ccccc1Cc1cc(C(=O)Nc2cc(S(=O)(=O)c3ccc(Cl)cc3)ccc2Cl)c(O)c(O)c1O [TW-35, N-[2-Chloro-5-(4-chloro-benzenesulfonyl)-phenyl]-2,3,4-trihydroxy-5-(2-isopropyl-benzyl)-benzamide] | > 1000 nM
CCCCCCCCCCCc1ccc(-c2cc(CCCc3ccccc3)c(O)c(O)c2O)cc1 [TW-6, 5-(3-Phenyl-propyl)-4′-undecyl-biphenyl-2,3,4-triol] | > 1000 nM
O=C(Nc1ccc(Cl)c(Cl)c1)c1cc(CCc2ccccc2)c(O)c(O)c1O [TW-27] | > 1000 nM
CCCCCCCCCCCc1ccc(-c2cc(Cc3ccc(C(C)(C)C)cc3)c(O)c(O)c2O)cc1 [TW-8, 5-(4-Tertbutyl-benzyl)-4′-undecyl-biphenyl-2,3,4-triol] | > 1000 nM
Oc1c(Cc2ccccc2)cc(-c2ccc(CCCc3ccccc3)cc2)c(O)c1O [TW-11, 5-Benzyl-4′-(3-phenyl-propyl)-biphenyl-2,3,4-triol] | > 1000 nM
CN(CCCc1ccccc1)S(=O)(=O)c1cc(C(=O)N2CCc3ccc(S(=O)(=O)NCCc4ccccc4)cc3C2)c(O)c(O)c1O [TM-1206] | ≤ 1000 nM
CC(C)(C)c1ccc(CCc2cc(C(=O)Nc3cccc(S(=O)(=O)c4ccccc4)c3)c(O)c(O)c2O)cc1 [TW-22, N-(3-Benzenesulfonyl-phenyl)-5-[2-(4-tert-butyl-phenyl)-ethyl]-2,3,4-trihydroxy-benzamide] | > 1000 nM
O=C(Nc1ccc(Oc2ccccc2)cc1)c1cc(CCc2ccccc2)c(O)c(O)c1O [TW-20, N-(4-phenyloxy-phenyl)-2,3,4-trihydroxy-5-phenethyl-benzamide] | > 1000 nM
CC(C)(C)c1ccc(Cc2cc(C(=O)Nc3ccc(S(=O)(=O)c4ccccc4C(C)(C)C)cc3)c(O)c(O)c2O)cc1 [TW-41, N-[4-(2-tert-Butyl-benzenesulfonyl)-phenyl]-2,3,4-trihydroxy-5-(4-tert-butyl-benzyl)-benzamide] | > 1000 nM
O=C(Nc1cc(S(=O)(=O)c2ccc(Cl)cc2)ccc1Cl)c1cc(Cc2ccccc2)c(O)c(O)c1O [TW-17] | > 1000 nM
CC(C)(C)c1ccc(Cc2cc(C(=O)Nc3cc(S(=O)(=O)c4ccc(Cl)cc4)ccc3Cl)c(O)c(O)c2O)cc1 [TW-39, N-[2-Chloro-5-(4-chloro-benzenesulfonyl)-phenyl]-2,3,4-trihydroxy-5-(4-tert-butyl-benzyl)-benzamide] | > 1000 nM
CC(C)c1cc(-c2ccc(C(C)(C)C)cc2)c(O)c(O)c1O [TW-4, 4′-tert-Butyl-5-isopropyl-biphenyl-2,3,4-triol] | > 1000 nM
CCCCCCCCCCc1ccc(-c2cc(C(C)C)c(O)c(O)c2O)cc1 [TW-5, 4′-Decyl-5-isopropyl-biphenyl-2,3,4-triol] | > 1000 nM
CC(C)(C)c1ccc(CCc2cc(C(=O)Nc3ccc(S(=O)(=O)c4ccccc4C(C)(C)C)cc3)c(O)c(O)c2O)cc1 [TW-38, N-[(2-tert-Butyl-benzenesulfonyl)-phenyl]-2,3,4-trihydroxy-5-(4-tert-butyl-phenethyl)-benzamide] | ≤ 1000 nM
Oc1c(Cc2ccccc2)cc(-c2ccc(Cc3ccccc3)cc2)c(O)c1O [TW-12, 5,4′-Dibenzyl-biphenyl-2,3,4-triol] | > 1000 nM
CC(C)c1cccc(NC(=O)c2cc(CCc3ccccc3)c(O)c(O)c2O)c1 [TW-24, N-(3-isopropyl-phenyl)-2,3,4-trihydroxy-5-phenethyl-benzamide] | > 1000 nM

The remaining lines, values ahead:

IC50 | SMILES
> 1000 nM | O=C(Nc1ccccc1)c1cc(S(=O)(=O)Nc2ccccc2)cc(O)c1O [TW-162]
> 1000 nM | O=C(Nc1ccc(S(=O)(=O)c2ccccc2)cc1)c1cc(Cc2ccccc2)c(O)c(O)c1O [TW-56, N-(Benzenesulfonyl-phenyl)-2,3,4-trihydroxy-5-benzyl-benzamide]
> 1000 nM | O=C(Nc1ccc(S(=O)(=O)N2CCC(Nc3ccccc3-c3ccccc3)CC2)cc1)c1cc(S(=O)(=O)N2CCc3ccccc3C2)cc(O)c1O [TW-173]
> 1000 nM | CC(C)(C)c1ccccc1NC1CCN(S(=O)(=O)c2ccc(NC(=O)c3cc(S(=O)(=O)N4CCc5ccccc5C4)cc(O)c3O)cc2)CC1 [TW-174]
> 1000 nM | CC(C)CCCc1ccccc1Cc1cc(C(=O)Nc2ccc(S(=O)(=O)c3ccccc3C(C)(C)C)cc2)c(O)c(O)c1O [TW-42, N-[4-(2-tert-Butyl-benzenesulfonyl)-phenyl]-2,3,4-trihydroxy-5-(2-iso-hexyl-benzyl)-benzamide]
> 1000 nM | CC(C)c1ccccc1Cc1cc(C(=O)Nc2ccccc2)c(O)c(O)c1O [TW-52, N-Phenyl-2,3,4-trihydroxy-5-(2-iso-propyl-benzyl)-benzamide]
≤ 1000 nM | O=C(NCCc1ccccc1)c1ccc(C2=Cc3c(c(O)c(O)c(O)c3-c3ccc(-c4ccccc4)cc3)C2=O)cc1 [TW-166]
≤ 1000 nM | CC(C)(C)c1ccc(CCc2cc(O)c(O)c(C(=O)Nc3ccc(S(=O)(=O)N4CCN(c5ncccn5)CC4)cc3)c2)cc1 [TW-169]
≤ 1000 nM | CCc1cc(C(=O)Nc2cc(S(=O)(=O)c3ccc(Cl)cc3)ccc2Cl)c(O)c(O)c1O [TW-45, N-[2-Chloro-5-(4-chloro-benzenesulfonyl)-phenyl]-2,3,4-trihydroxy-5-ethyl-benzamide]
> 1000 nM | CC(C)(C)c1ccccc1S(=O)(=O)c1ccc(NC(=O)c2cc(S(=O)(=O)NCCCCc3ccccc3)cc(O)c2O)cc1 [TW-160]
≤ 1000 nM | O=C(Nc1cc(S(=O)(=O)c2ccc(Cl)cc2)ccc1Cl)c1ccc(O)c(O)c1O [TW-46, N-[2-Chloro-5-(4-chloro-benzenesulfonyl)-phenyl]-2,3,4-trihydroxy-benzamide]
> 1000 nM | CC(C)(C)c1ccccc1S(=O)(=O)c1ccc(NC(=O)c2cc(S(=O)(=O)NCCc3ccccc3)cc(O)c2O)cc1 [TW-161]
≤ 1000 nM | O=C(Nc1ccc(S(=O)(=O)N2CCOCC2)cc1)c1cc(S(=O)(=O)N2CCc3ccccc3C2)cc(O)c1O [TW-164]
≤ 1000 nM | COc1ccc(S(=O)(=O)Nc2ccccc2C(C)C)cc1NC(=O)c1cc(S(=O)(=O)N2CCc3ccccc3C2)cc(O)c1O [TW-165]
> 1000 nM | CNC(=O)c1cc(Cc2ccccc2C(C)C)c(O)c(O)c1O [TW-55, N-Methyl-2,3,4-trihydroxy-5-(2-isopropyl-benzyl)-benzamide]
≤ 1000 nM | CC(C)CCCc1cc(C(=O)Nc2cc(S(=O)(=O)c3ccc(Cl)cc3)ccc2Cl)c(O)c(O)c1O [TW-47, N-[2-Chloro-5-(4-chloro-benzenesulfonyl)-phenyl]-2,3,4-trihydroxy-5-iso-hexyl-benzamide]
≤ 1000 nM | O=C1C(c2ccc(C(=O)N3CCC(Cc4ccccc4)CC3)cc2)=Cc2c1c(O)c(O)c(O)c2-c1ccc(-c2ccccc2)cc1 [TW-172]
